Measured values reported in patent US9593305B2, “Differentiation of pluripotent stem cells” (Janssen Biotech, Inc., priority 2008, dated 2017).
Values joined by “and” are separate entries in the source; they are usually repeats but may differ in a detail not shown here. Equal entries are not always repeated.

Tested on: H1 human embryonic stem cells
Test: Compounds and growth factors with low dose activin A (Example 9, Table 9)
Type: cell-based
Description: Clusters of H1 human embryonic stem cells were grown on reduced growth factor […]™ (Invitrogen; Cat #356231)-coated tissue culture plastic. Cells were passaged using collagenase (Invitrogen; Cat #17104-019) treatment and gentle scraping, washed to remove residual enzyme, and plated with even dispersal at a ratio of 1:1 (surface area) on reduced growth factor […]™-coated 96-well black plates (Packard ViewPlates; PerkinElmer; Cat #6005182) using volumes of 100 μl/well. Cells were allowed to attach as clusters and then recover log phase growth over a 1 to 3 day period, feeding daily with MEF conditioned medium supplemented with 8 ng/ml bFGF (R&D Systems; Cat #233-FB). Plates were maintained at 37° C., 5% CO2 in a humidified box throughout the duration of assay.
Stocks of growth factors purchased from R&D Systems were EGF (Cat #236-EG), FGF4 (Cat #235-F4), PDGF-A (Cat #221-AA), PDGF-D (Cat #1159-SB), PDGF-A/B (Cat #222-AB), VEGF (Cat #293-VE), and GDF-8 (Cat #788-08). Activin A was purchased from PeproTech (Cat #). Muscimol was purchased from Tocris (Cat #0289). All growth factors were solubilized in PBS with 0.1% BSA (Sigma; Cat #A7888) and stored frozen at −80° C. Muscimol was solubilized in 100% DMSO (Sigma; Cat #D2650) and stored frozen at −80° C. The compounds were available as 5 mM stocks in 96-well plate format, solubilized in 100% DMSO and stored at −80° C. The compounds were further diluted to an intermediate concentration of 0.2 mM in 50 mM HEPES (Invitrogen; Cat #15630-080), 20% DMSO and stored at 4° C. All growth factors and inhibitors were prepared in a deep well, 96-well polypropylene plate, diluted to 5× intermediate stocks in DMEM:F12 base medium at the beginning of assay and stored at 4° C.
A secondary screening assay was conducted, testing in triplicate and feeding on alternate days over the four-day assay timeframe. Assays were initiated by aspirating culture medium from each well followed by three washes in PBS to remove residual growth factors and serum. Test volumes of 80 μl per well were added back containing DMEM:F12 base medium (Invitrogen; Cat #11330-032) supplemented with 0.625% FCS (HyClone; Cat #SH30070.03), 25 ng/ml Wnt3a (R&D Systems), 12.5 ng/ml activin A, and 3.125 μM compound plus 20 μl 5× stock of growth factor or small molecule to yield a final concentration of 0.5% FCS, 20 ng/ml Wnt3a, 10 ng/ml activin A, and 2.5 μM compound. All remaining growth factors were tested at a final assay concentration of 50 ng/ml (EGF, FGF4, PDGF-A, PDGF-A/B, VEGF), with the exception of GDF-8 used at 25 ng/ml. Final assay concentration of muscimol was 20 μM. Positive control wells (100 μl/well) contained the same base medium supplemented with 0.5% FCS, 20 ng/ml Wnt3a and 10 ng/ml (low dose) or 100 ng/ml (high dose) activin A. Negative control wells (100 μl/well) contained the same base medium with 0.5% FCS and 20 ng/ml Wnt3a, omitting activin A.
Positive control wells (100 μl/well) contained the same base medium supplemented with 2% FCS and 10 ng/ml or 100 ng/ml activin A, omitting Wnt3a. Negative control wells (100 μl/well) contained the same base medium with 2% FCS, omitting both activin A and Wnt3a.
At the conclusion of four-days of culture, assay plates were washed twice with PBS, fixed with 4% paraformaldehyde (Alexis Biochemical; Cat #ALX-350-011) at room temperature for 20 minutes, then washed three times with PBS and permeabilized with 0.5% Triton X-100 (Sigma; Cat #T8760-2) for 20 minutes at room temperature. Cells were washed again three times with PBS and blocked with 4% chicken serum (Invitrogen; Cat #16110082) in PBS for 30 minutes at room temperature. Primary antibody (goat anti-human SOX17; R&D Systems; cat #AF1924) was diluted 1:100 in 4% chicken serum and added to each well for one hour at room temperature. […]

[1] = 10 ng/ml AA + compound + EGF + FGF4 + PDGF-A + Muscimol + Wnt3a
[2] = 10 ng/ml AA + compound + EGF + FGF4 + PDGF-A + VEGF + PDGF-D + Muscimol + GDF8 + Wnt3a
[3] = 10 ng/ml AA + compound + EGF + FGF4 + PDGF-AB + VEGF + Wnt3a
[4] = 10 ng/ml AA + compound + EGF + FGF4 + PDGF-AB + Wnt3a
[5] = 10 ng/ml AA + compound + EGF + FGF4 + Wnt3a
[6] = 10 ng/ml AA + compound + EGF + Wnt3a
[7] = 10 ng/ml AA + compound + FGF4 + Wnt3a
[8] = 10 ng/ml AA alone, no compound, no growth factors
[9] = 100 ng/ml AA alone, no compound, no growth factors

Row | Molecule | Cell Number, % of positive control [1] | Cell Number, Average Total Cell Number [1] | Sox17 Expression, % of positive control [1] | Sox17 Expression, Average Total Intensity [1] | Cell Number, % of positive control [2] | Cell Number, Average Total Cell Number [2] | Sox17 Expression, % of positive control [2] | Sox17 Expression, Average Total Intensity [2] | Cell Number, % of positive control [3] | Cell Number, Average Total Cell Number [3] | Sox17 Expression, % of positive control [3] | Sox17 Expression, Average Total Intensity [3] | Cell Number, % of positive control [4] | Cell Number, Average Total Cell Number [4] | Sox17 Expression, % of positive control [4] | Sox17 Expression, Average Total Intensity [4] | Cell Number, % of positive control [5] | Cell Number, Average Total Cell Number [5] | Sox17 Expression, % of positive control [5] | Sox17 Expression, Average Total Intensity [5] | also measured
1 | CCN1CC(=O)NCCCc2cncc(c2)-c2ncnc(n2)Nc2cc(Cl)cc(c2)C1 [Compound 35, 10-Chloro-14-ethyl-3,5,7,14,17,23,27-heptaazatetracyclo[19.3.1.1˜2,6˜0.1˜8,12]Theptacosa-1(25), 2(27), 3,5,8(26), 9,11,21,23-nonaen-16-one] | 62.29 % of positive control | 3820 | −1.46 % of positive control | −1.67E+06 | 41.14 % of positive control | 2522 | −4.25 % of positive control | −4.86E+06 | 56.74 % of positive control | 3479 | −3.46 % of positive control | −3.96E+06 | 53.21 % of positive control | 3263 | −3.99 % of positive control | −4.56E+06 | 44.10 % of positive control | 2704 | −3.65 % of positive control | −4.17E+06 | Cell Number, % of positive control [6]: 2.53 % of positive control; Cell Number, Average Total Cell Number [6]: 155; Sox17 Expression, % of positive control [6]: −6.84 % of positive control; Sox17 Expression, Average Total Intensity [6]: −7.82E+06; Cell Number, % of positive control [7]: 4.64 % of positive control; Cell Number, Average Total Cell Number [7]: 284; Sox17 Expression, % of positive control [7]: −6.59 % of positive control; Sox17 Expression, Average Total Intensity [7]: −7.54E+06; Cell Number, % of positive control (10 ng/ml AA + compound + Wnt3a): 2.83 % of positive control; Cell Number, Average Total Cell Number (10 ng/ml AA + compound + Wnt3a): 173; Sox17 Expression, % of positive control (10 ng/ml AA + compound + Wnt3a): −6.66 % of positive control; Sox17 Expression, Average Total Intensity (10 ng/ml AA + compound + Wnt3a): −7.61E+06
2 | O=C1NCCCc2cncc(c2)-c2ncnc(n2)Nc2cc(Cl)cc(c2)CN2CCCC1C2 (stereo not drawn) [Compound 37, 10-Chloro-3,5,7,14,20,26,31-heptaazapentacyclo[22.3.1.1˜2,6˜0.1˜8,12˜0.1˜14,18˜]hentriaconta-1(28), 2(31), 3,5,8(30), 9,11,24,26-nonaen-19-one] | 59.34 % of positive control | 4540 | 0.83 % of positive control | 9.23E+05 | 74.65 % of positive control | 5711 | 10.82 % of positive control | 1.21E+07 | 62.31 % of positive control | 4767 | −0.46 % of positive control | −5.16E+05 | 55.20 % of positive control | 4223 | −0.55 % of positive control | −6.15E+05 | 45.77 % of positive control | 3501 | 0.50 % of positive control | 5.60E+05 | Cell Number, % of positive control [6]: 18.70 % of positive control; Cell Number, Average Total Cell Number [6]: 1431; Sox17 Expression, % of positive control [6]: −2.47 % of positive control; Sox17 Expression, Average Total Intensity [6]: −2.75E+06; Cell Number, % of positive control [7]: 51.37 % of positive control; Cell Number, Average Total Cell Number [7]: 3930; Sox17 Expression, % of positive control [7]: −1.69 % of positive control; Sox17 Expression, Average Total Intensity [7]: −1.88E+06; Cell Number, % of positive control (10 ng/ml AA + compound + Wnt3a): 10.34 % of positive control; Cell Number, Average Total Cell Number (10 ng/ml AA + compound + Wnt3a): 791; Sox17 Expression, % of positive control (10 ng/ml AA + compound + Wnt3a): −2.68 % of positive control; Sox17 Expression, Average Total Intensity (10 ng/ml AA + compound + Wnt3a): −2.99E+06
3 | CN1CCC(=O)NCCCNc2ncccc2-c2ncnc(n2)Nc2cccc(c2)C1 [Compound 39, 9-Methyl-2,3,4,5,7,8,9,10-octahydro-16H-17,21-(azeno)-11,15-(metheno)pyrido[3,2-g][1,3,5,9,13,17]hexaazacyclotricosin-6(1H)-one] | 37.64 % of positive control | 2879 | 3.24 % of positive control | 3.61E+06 | 75.00 % of positive control | 5738 | 19.24 % of positive control | 2.14E+07 | 33.08 % of positive control | 2531 | 2.53 % of positive control | 2.82E+06 | 39.07 % of positive control | 2989 | −0.02 % of positive control | −1.78E+04 | 9.59 % of positive control | 734 | −3.53 % of positive control | −3.93E+06 | Cell Number, % of positive control [6]: 2.75 % of positive control; Cell Number, Average Total Cell Number [6]: 211; Sox17 Expression, % of positive control [6]: −4.08 % of positive control; Sox17 Expression, Average Total Intensity [6]: −4.54E+06; Cell Number, % of positive control [7]: 6.81 % of positive control; Cell Number, Average Total Cell Number [7]: 521; Sox17 Expression, % of positive control [7]: −4.01 % of positive control; Sox17 Expression, Average Total Intensity [7]: −4.46E+06; Cell Number, % of positive control (10 ng/ml AA + compound + Wnt3a): 6.78 % of positive control; Cell Number, Average Total Cell Number (10 ng/ml AA + compound + Wnt3a): 518; Sox17 Expression, % of positive control (10 ng/ml AA + compound + Wnt3a): −2.13 % of positive control; Sox17 Expression, Average Total Intensity (10 ng/ml AA + compound + Wnt3a): −2.37E+06
4 | Activin A: recombinant human activin A (PeproTech), TGF-beta family member |  |  |  |  |  |  |  |  |  |  |  |  |  |  |  |  |  |  |  |  | Cell Number, % of positive control [8]: 67.67 % of positive control and 100.00 % of positive control; Cell Number, Average Total Cell Number [8]: 5177 and 6132; Cell Number, % of positive control [9]: 100.00 % of positive control and 157.51 % of positive control; Cell Number, Average Total Cell Number [9]: 7650 and 9658; Sox17 Expression, % of positive control [9]: 100.00 % of positive control; Sox17 Expression, Average Total Intensity [9]: 1.11E+08 and 1.14E+08
